The assay deals with T1, TRIP13 (Homo sapiens, UniProt Q15645).
T1 construct: full length, 1-432 aa, N-GST-tagged
T1 sequence (Q15645 1-432): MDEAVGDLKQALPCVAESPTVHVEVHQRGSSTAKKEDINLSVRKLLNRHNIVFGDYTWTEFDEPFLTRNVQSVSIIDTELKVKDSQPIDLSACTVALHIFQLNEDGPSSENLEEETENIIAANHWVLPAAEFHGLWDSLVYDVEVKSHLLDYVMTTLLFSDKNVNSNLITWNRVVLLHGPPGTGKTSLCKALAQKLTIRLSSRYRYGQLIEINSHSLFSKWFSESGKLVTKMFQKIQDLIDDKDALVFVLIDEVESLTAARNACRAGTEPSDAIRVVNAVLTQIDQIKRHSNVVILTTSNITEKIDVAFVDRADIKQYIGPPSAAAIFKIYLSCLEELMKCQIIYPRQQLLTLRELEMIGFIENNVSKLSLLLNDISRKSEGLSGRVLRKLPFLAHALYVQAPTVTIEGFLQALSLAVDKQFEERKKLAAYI
Nature of the assay: ADP-Glo ATPase dose-response ([…] TRIP13, […] ATP) with ADP counter-screen; also CETSA in HeLa cells. The class given is biochemical.

`COc1cc2c(Oc3ccc4[nH]c(C)cc4c3F)ccnc2cc1OCC1(N)CC1` [anlotinib] came in with an IC50 of 5.5 ± 1 µM.

Source of the values: publication PMC12224672, “Advancing the development of TRIP13 inhibitors: A high-throughput screening approach” (SLAS discovery : advancing life sciences R & D, 2025).
